Experimental data from patent US20260191856A1 (priority 2022, published 2026).
pEC50: −log10 of the molar value. Where “and” joins values, the source holds several entries; their conditions need not be identical. Identical values can stand only once. Entries after “also recorded” stand apart in the source; their conditions may differ. Like-named read-outs stand apart in the source and are kept apart here. Marks after values point to notes of the source that are not given here.

Legend:
[1] = in vivo; settings: male, C57BL/6J, mouse, iv, 10 mg/kg
[2] = system: male C57BL/6J mice; assay: Naloxone-precipitated opioid withdrawal assay
[3] = system: male C57BL/6J mice; assay: Locomotor and respiration effects (CLAMS)
[4] = male, C57BL/6J, mouse, in vivo, iv, 10 mg/kg
[5] = target: T1, MOR (Homo sapiens, UniProt P35372); type: cell-based
T1 construct: expressed in transfected cells; host or cells: HEK293T

[6] = system: male C57BL/6J mice; assay: Conditioned place preference (CPP) assay; type: in vivo, mouse
[7] = target: T2, MOR (Mus musculus, UniProt P42866); type: biochemical; design: FLAG (N); hexa-histidine (C); made in house; host or cells: Spodoptera frugiperda (Sf9) for MOR; Trichoplusia ni for Gi
[8] = target: T3, δOR (Homo sapiens, UniProt P41143); assay: TRUPATH subtype selectivity, δOR/DPDPE; type: cell-based; settings: compound A3 up to 30 μM
T3 construct: expressed in transfected cells; host or cells: HEK293T (method is written for MOR)

[9] = target: T1, MOR; type: cell-based; remark: listed apart in the source
[10] = target: T4, κOR (Homo sapiens, UniProt P41145); assay: TRUPATH subtype selectivity, κOR/U50488; type: cell-based; settings: compound A3 up to 30 μM
T4 construct: expressed in transfected cells; host or cells: HEK293T (method is written for MOR)

[11] = target: T2, MOR; assay: biochemical; type: binding; design: made in house; host or cells: Sf9 insect cell membranes (baculovirus)
[12] = target: T1, MOR; assay: TRUPATH subtype selectivity, MOR/DAMGO; type: cell-based; settings: compound A3 up to 30 μM
[13] = system: male C57BL/6J mice; settings: mouse, in vivo
[14] = target: T5, CB1 (Homo sapiens, UniProt P21554); assay: GTP turnover assay with CB1 and Gi1; type: biochemical; design: Purification of human full-length CB1 with an N-terminal FLAG and C-terminal hexahistidine tags; FLAG (N); hexahistidine (C); made in house; host or cells: insect cells (baculovirus, Expression Systems) for CB1; Trichoplusia ni for Gi
[15] = target: T5, CB1; assay: 3H-SR141716A radioligand binding to CB1-containing membranes; design: made in house; host or cells: insect cell membranes (inferred from 'similar manner' to the Sf9 MOR membranes); settings: compared with ZCZ
Protocol: CB1-containing membranes prepared in a similar manner to the μOR-containing membranes prepared above were diluted 1:2000 in 50 mM HEPES pH 7.4, 5 mM EDTA, 5 mM MgCl2, and 1% bovine serum albumin (BSA). 96-well plates precoated with blocking buffer (20 mM HEPES (pH 7.4), 100 mM NaCl, and 0.05% BSA) were used as reaction plates. For “competition” binding experiments, membranes were incubated with 6 nM ^3H-SR141716a (50.9 Ci/mmol; Perkin Elmer) and serially diluted allosteric modulators for 1 hour at room temperature with shaking. Following incubation, membranes were rapidly bound to double thick 90×120 mm glass fibre Printed Filtermat B filters (Perkin Elmer) presoaked in 0.33% (v/v) polyethylenimine and washed with cold binding buffer (20 mM HEPES pH 7.4, 100 mM NaCl) using a MicroBeta Filtermat-96 cell harvester (Perkin Elmer). ^3H-SR141716a bound membranes on Filtermats were measured with a MicroBeta counter (Perkin Elmer) after addition of MultiLex B/HS melt-on scintillator sheets (Perkin Elmer) and data values were plotted after normalizing total counts per minute to the highest and lowest values.

[16] = Condition 4 morphine + compound A3 (100 mg/kg) + low NAL (0.1 mg/kg)
[17] = compound A3 1-100 mg/kg + naloxone 0.1 mg/kg, maximal at 100 mg/kg
[18] = Condition 1 saline + NAL (10 mg/kg)
[19] = Condition 2 morphine + NAL (10 mg/kg)
[20] = Condition 3 morphine + low NAL (0.1 mg/kg)
[21] = Condition 3 morphine + low NAL (0.1 mg/kg), listed as NAL

T5 sequence (P21554 whole entry): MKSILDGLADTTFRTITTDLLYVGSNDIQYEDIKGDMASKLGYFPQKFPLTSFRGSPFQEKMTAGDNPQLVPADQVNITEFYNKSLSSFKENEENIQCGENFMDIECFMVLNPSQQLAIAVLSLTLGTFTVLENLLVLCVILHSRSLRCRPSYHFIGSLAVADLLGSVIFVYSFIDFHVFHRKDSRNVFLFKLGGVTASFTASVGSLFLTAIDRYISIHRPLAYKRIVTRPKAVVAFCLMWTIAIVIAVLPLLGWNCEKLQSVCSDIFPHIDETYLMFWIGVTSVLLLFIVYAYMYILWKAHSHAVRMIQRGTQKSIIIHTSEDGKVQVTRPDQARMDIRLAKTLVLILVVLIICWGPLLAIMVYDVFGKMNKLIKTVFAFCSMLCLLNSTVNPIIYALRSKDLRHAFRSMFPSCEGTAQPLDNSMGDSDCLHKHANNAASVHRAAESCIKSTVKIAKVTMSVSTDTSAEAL
T1 sequence (P35372 whole entry): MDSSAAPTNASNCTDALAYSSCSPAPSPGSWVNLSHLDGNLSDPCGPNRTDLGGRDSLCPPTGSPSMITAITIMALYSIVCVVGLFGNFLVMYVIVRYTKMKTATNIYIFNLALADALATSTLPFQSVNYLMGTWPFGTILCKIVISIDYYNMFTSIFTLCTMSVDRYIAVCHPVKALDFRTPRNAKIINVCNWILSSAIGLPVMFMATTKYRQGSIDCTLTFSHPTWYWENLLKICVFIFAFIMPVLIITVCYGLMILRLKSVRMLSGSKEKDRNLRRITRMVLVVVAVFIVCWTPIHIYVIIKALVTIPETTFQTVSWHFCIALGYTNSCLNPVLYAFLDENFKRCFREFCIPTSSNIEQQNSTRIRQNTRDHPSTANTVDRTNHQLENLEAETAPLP
T2 sequence (P42866 whole entry): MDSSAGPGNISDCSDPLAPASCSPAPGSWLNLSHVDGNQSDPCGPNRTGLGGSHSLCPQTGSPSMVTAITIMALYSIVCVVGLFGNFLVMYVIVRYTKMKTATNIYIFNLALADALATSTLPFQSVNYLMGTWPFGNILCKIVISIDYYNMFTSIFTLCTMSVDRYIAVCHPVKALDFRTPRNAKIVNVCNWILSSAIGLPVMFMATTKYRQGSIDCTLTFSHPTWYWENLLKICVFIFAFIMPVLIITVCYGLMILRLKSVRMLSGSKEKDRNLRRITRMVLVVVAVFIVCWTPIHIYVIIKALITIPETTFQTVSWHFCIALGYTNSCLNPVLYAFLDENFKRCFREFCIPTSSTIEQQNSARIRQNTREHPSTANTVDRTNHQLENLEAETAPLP
T3 sequence (P41143 whole entry): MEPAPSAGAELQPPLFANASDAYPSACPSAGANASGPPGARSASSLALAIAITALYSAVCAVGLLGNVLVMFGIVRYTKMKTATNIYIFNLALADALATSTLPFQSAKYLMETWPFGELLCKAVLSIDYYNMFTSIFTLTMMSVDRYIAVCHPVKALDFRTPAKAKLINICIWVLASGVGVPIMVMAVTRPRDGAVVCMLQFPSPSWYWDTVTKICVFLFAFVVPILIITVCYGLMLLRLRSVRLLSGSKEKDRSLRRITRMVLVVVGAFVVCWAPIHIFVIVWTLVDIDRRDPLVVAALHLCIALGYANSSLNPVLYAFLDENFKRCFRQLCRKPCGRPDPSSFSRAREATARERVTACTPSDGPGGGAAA
T4 sequence (P41145 whole entry): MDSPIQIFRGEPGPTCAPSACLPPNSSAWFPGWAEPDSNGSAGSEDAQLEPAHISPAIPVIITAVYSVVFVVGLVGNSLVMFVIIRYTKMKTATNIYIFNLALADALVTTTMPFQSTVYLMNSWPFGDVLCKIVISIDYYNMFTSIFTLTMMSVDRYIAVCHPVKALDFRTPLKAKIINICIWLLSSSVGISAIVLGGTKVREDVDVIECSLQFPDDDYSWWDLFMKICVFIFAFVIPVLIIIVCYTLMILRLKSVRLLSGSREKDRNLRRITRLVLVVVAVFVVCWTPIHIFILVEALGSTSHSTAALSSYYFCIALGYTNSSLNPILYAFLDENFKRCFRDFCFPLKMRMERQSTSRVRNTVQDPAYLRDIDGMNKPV

CNC(=O)C(Cc1ccc(C)c(OC)c1)NC(=O)CSc1ccc2ccccc2c1-c1cncc(OCc2ccccc2)c1 (racemic) [Compound A3, 2-(2-((1-(5-(benzyloxy)pyridin-3-yl)naphthalen-2-yl)thio)acetamido)-3-(3-methoxy-4-methylphenyl)-N-methylpropanamide]
half-life [1]: 44.4 min | Forepaw Licking Frequency, Avg [2, 16]: 0.6 | Forepaw Tremor, Avg [2, 16]: 1.6 | Rearing Frequency, Avg [2, 16]: 1.6* | Straightening, Avg [2, 16]: 0.2 | Wet Dog shakes, Avg [2, 16]: 1.1 | magnitude of naloxone-precipitated withdrawal, combined low-dose naloxone/NAM treatment ([2]; compound A3 100 mg/kg s.c. + naloxone 0.1 mg/kg s.c., morphine-dependent mice): did not potentiate the magnitude of withdrawal caused by a low-dose of naloxone alone to the same levels of withdrawal symptoms as the conventional naloxone treatment | enhancement of low-dose naloxone inhibition of morphine-induced hyperlocomotion [3, 17]: significantly enhances low-dose naloxone inhibition of hyperlocomotion | enhancement of low-dose naloxone inhibition of morphine-induced respiratory depression [3, 17]: significantly enhances low-dose naloxone inhibition | ambulation or breathing rate, compound itself ([3]; compound A3 alone, relative to vehicle): does not change ambulation or breathing rate relative to vehicle administration | brain penetration [4]: ~ 25 % of maximum plasma levels | inhibition across Gi/o subtypes [5]: all Ci/o subtypes were inhibited nearly equally | morphine CPP after compound A3 and low-dose naloxone ([6]; compound A3 100 mg/kg sc (−30 min) + naloxone 0.1 mg/kg s.c.): morphine CPP was eliminated | GTP turnover in the absence of orthosteric ligand [7]: inhibits turnover of the receptor in the absence of orthosteric ligand; also recorded: inhibited receptor-catalyzed GTP turnover in the absence of orthosteric ligands | effect on met-enkephalin induced activation of G protein (GTP turnover) [7]: significantly inhibits met-enkephalin induced activation of Gi; also recorded: inhibited MOR/met-enkephalin induced activation of Gl | efficacy of modulation of met-enkephalin-induced GTP turnover [7]: inhibiting GTP depletion to nearly the same levels as those observed for G in the absence of any receptor catalyst; also recorded: nearly eliminating receptor induced GTP turnover | potency in GTP turnover assay [7]: single-digit μM range | potency of A3 at inhibiting relative to A1 at enhancing MOR/met-enkephalin induced activation of G [7]: > 10 fold | right-shift in DPDPE potency at δOR [8]: caused a right-shift in DPDPE potency at SOR, though to a lesser extent | enhancement of observed potency of naloxone for inhibiting agonist-induced signaling [9]: 7.6 | effect at κOR activation by U50,488 [10]: No effect is observed at KOR activation by U50,488 | pEC50 ([11]; EC50 of increased binding of 3H-naloxone, MOR-expressing membranes): 6.89 and 6.88 | increase in 3H-naloxone affinity ([11]; in the presence of excess A3): ~ 2.6 fold and 2.6 fold | enhancement of observed on-rate of 3H-naloxone ([11]; orthosteric site saturated with mitragynine pseudoindoxyl): > 10 fold | right-shift in DAMGO potency at the MOR [12]: 3.7 fold | impact on morphine-induced antinociception, compound alone [13]: no significant impact on morphine-induced antinociception | inhibition of morphine-induced antinociception in the presence of low-dose naloxone [13]: significantly inhibits morphine-induced antinociception in a dose-dependent manner | median dose to potentiate low-dose naloxone antagonism of morphine antinociception [13]: 1.15 (0.03-4.04) mg/kg, s.c.

CNC(=O)[C@H](Cc1ccc(C#N)cc1)NCc1csc(-c2cccc(-c3ccc4cc(N)ccc4c3)c2)n1 [Compound A1]
GTP turnover in the absence of orthosteric ligand [7]: can induce GTP turnover to similar levels observed for the full agonist DAMGO | effect on met-enkephalin induced activation of G protein (GTP turnover) [7]: enhance met-enkephalin induced activation of G protein | efficacy of modulation of met-enkephalin-induced GTP turnover [7]: more efficacious at improving GTP turnover compared to A2; also recorded: highly effective at enhancing activity, fully depleting nucleotide under these conditions | potency in GTP turnover assay [7]: low double-digit micromolar | decrease in naloxone affinity for the receptor ([11]; in the presence of A1): ~ 6 fold | effect on binding of 3H-naloxone ([11]; increasing amounts of compound, MOR-expressing membranes): decrease binding of ^3H-naloxone to MOR-expressing membranes

CNC(=O)c1nc2ccc(N3CC(N)C3)nn2c1-c1ccc(OCc2ccccc2)c(F)c1 [Compound A4]
effect on Gi1 GTP turnover, AEA-bound CB1 ([14]; AEA): not AEA-bound CB1 | effect on Gi1 GTP turnover, FUB-bound CB1 ([14]; FUB (MDMB-Fubinaca)): enhance FUB-induced Gi turnover; also recorded: specifically able to increase turnover for FUB-bound CB1 | effect on 3H-SR141716A antagonist binding [15]: binds CB1 and decreases antagonist affinity though with lower potency than the known PAM, ZCZ

CNC(=O)[C@H](Cc1ccc(C)c(OC)c1)NC(=O)CSc1ccc2ccccc2c1-c1cncc(OCc2ccccc2)c1 [Compound B1, (S)-2-(2-((1-(5-(benzyloxy)pyridin-3-yl)naphthalen-2-yl)thio)acetamido)-3-(3-methoxy-4-methylphenyl)-N-methylpropanamide]
potency of B1 relative to B2, GTP turnover assays [7]: ≥ 100 | potency of B1 relative to B2, 3H-naloxone results ([11]; FIG. 5A): ≥ 100 fold

CN1CC[C@]23c4c5ccc(O)c4O[C@H]2[C@@H](O)C=C[C@H]3[C@H]1C5 [Morphine]
ambulations ([3]; Morphine (20 mg/kg, s.c.)): significantly increased ambulations for over 140 min | breathing rate ([3]; Morphine (20 mg/kg, s.c.)): decreased breathing rate through 100 min

C=CCN1CC[C@]23c4c5ccc(O)c4O[C@H]2C(=O)CC[C@@]3(O)[C@H]1C5 [Naloxone]
Forepaw Tremor, Avg [2, 18]: 26.7 | Jumping Frequency, Avg [2, 18]: 2.7 | Rearing Frequency, Avg [2, 18]: 23.5 | Stool Consistency, Avg [2, 18]: 1.6 | Straightening, Avg [2, 18]: 0.1 | Teeth Chattering Frequency, Avg [2, 18]: 1 | Forepaw Tremor, Avg [2, 19]: 26.7 | Jumping Frequency, Avg [2, 19]: 76.9* | Rearing Frequency, Avg [2, 19]: 2.64* | Stool Consistency, Avg [2, 19]: precipitates significant diarrhea | Straightening, Avg [2, 19]: 0.55 | Teeth Chattering Frequency, Avg [2, 19]: 54.2* | Stool Consistency, Avg ([2]; Condition 2 morphine + NAL (10 mg/kg), listed as NAL): 7.46* | Forepaw Tremor, Avg [2, 20]: 7.3 | Jumping Frequency, Avg [2, 20]: caused significant withdrawal symptoms | Rearing Frequency, Avg [2, 20]: 22.2 | Stool Consistency, Avg [2, 20]: precipitates significant diarrhea | Straightening, Avg [2, 20]: 3.1 | Teeth Chattering Frequency, Avg [2, 20]: had no effect relative to saline alone | Jumping Frequency, Avg [2, 21]: 45.4*† | Stool Consistency, Avg [2, 21]: 9.3* | Teeth Chattering Frequency, Avg [2, 21]: 0.7+ | effect of low-dose naloxone pretreatment on morphine-induced hyperlocomotion ([3]; naloxone 0.1 mg/kg): ineffective in ameliorating morphine-induced hyperlocomotion | effect of low-dose naloxone pretreatment on morphine-induced respiratory depression ([3]; naloxone 0.1 mg/kg): observed to reduce morphine-induced respiratory depression | morphine CPP after vehicle and low-dose naloxone ([6]; vehicle (−30 min) + naloxone 0.1 mg/kg s.c. (−15 min)): did not prevent significant morphine CPP | antagonism of morphine-induced antinociception by low-dose naloxone alone [13]: no significant antagonism

Cc1ccc2c(C(C[N+](=O)[O-])c3cccs3)c(-c3ccccc3)[nH]c2c1 (stereo not drawn) [ZCZ, reference compound]
effect on Gi1 GTP turnover, AEA-bound CB1 [14]: causes increased Gi1 turnover for both FUB and AEA, equally | effect on Gi1 GTP turnover, FUB-bound CB1 [14]: causes increased Gi1 turnover for both FUB and AEA, equally
